Experimental data from PMC9090415, “Discovery of small molecule inhibitors of Plasmodium falciparum apicoplast DNA polymerase” (Journal of Enzyme Inhibition and Medicinal Chemistry, 2022).

Target: P. falciparum apicoplast DNA polymerase (Pf-apPOL) (Plasmodium falciparum, UniProt Q8ILY1)
Assay: Fluorescence-based high-throughput DNA polymerase assay (molecular beacon), primary screen and dose-response;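 as to % inhibition ApPOL 90': test concentration in µM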;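 as to % inhibition apPOL 180': test concentration in µM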
Type: biochemical
Outline: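 Single-point screening used 10 µM compound with 20 nM polymerase, 20 nM hairpin substrate and 6 µM dNTPs for 90 min at 25 °C. Confirmatory titrations (2.5–80 µM) followed fluorescence at three times, and IC50 was derived from a fit including a cooperativity term n.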

[1] = DRC-1; concentration 80 (unit not given); 10'
[2] = primary screen value of the 186 hits; unit not given; 90 min, 10 µM
[3] = primary screen value; head prints only 'DNA Pol'; 90 min, 10 µM
[4] = supplemental file 2, sheet IC50 nontoxic compounds; Pf-apPOL

P. falciparum apicoplast DNA polymerase (Pf-apPOL), sequence (Q8ILY1 entry or part of it): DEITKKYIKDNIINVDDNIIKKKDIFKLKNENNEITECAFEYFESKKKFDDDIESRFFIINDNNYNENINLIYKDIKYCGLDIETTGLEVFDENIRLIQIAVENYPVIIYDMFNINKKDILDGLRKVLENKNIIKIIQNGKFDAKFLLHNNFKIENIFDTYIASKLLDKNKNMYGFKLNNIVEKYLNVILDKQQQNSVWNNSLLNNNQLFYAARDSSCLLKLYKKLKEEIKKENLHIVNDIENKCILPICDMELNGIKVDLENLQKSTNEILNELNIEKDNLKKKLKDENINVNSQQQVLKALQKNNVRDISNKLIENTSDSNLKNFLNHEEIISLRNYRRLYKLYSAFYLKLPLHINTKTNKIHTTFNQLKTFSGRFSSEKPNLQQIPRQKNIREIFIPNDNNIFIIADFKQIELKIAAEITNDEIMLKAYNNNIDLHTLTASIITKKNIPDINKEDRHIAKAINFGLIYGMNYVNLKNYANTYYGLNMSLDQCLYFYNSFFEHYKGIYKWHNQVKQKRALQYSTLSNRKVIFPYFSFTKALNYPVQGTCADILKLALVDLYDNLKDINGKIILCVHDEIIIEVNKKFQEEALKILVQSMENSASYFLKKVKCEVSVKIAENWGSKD

O=C(O)c1cc([N+](=O)[O-])c(N2CCN(c3cccc(C(F)(F)F)c3)CC2)c([N+](=O)[O-])c1 [KU0076747]
% inhibition Apo pol 10' (DRC-1; concentration 2.5; 10'): 9.057%
% inhibition Apol 90' (DRC-1; concentration 2.5; 90'): 2.381%
% inhibition apPOL 180' (DRC-1; concentration 2.5; 180'): -1.314%
% inhibition Apo pol 10' (DRC-1; concentration 5; 10'): 24.3374%
% inhibition Apol 90' (DRC-1; concentration 5; 90'): 17.3572%
% inhibition apPOL 180' (DRC-1; concentration 5; 180'): 9.492%
% inhibition Apo pol 10' (DRC-1; concentration 10; 10'): 20.6042%
% inhibition Apol 90' (DRC-1; concentration 10; 90'): 12.0526%
% inhibition apPOL 180' (DRC-1; concentration 10; 180'): 7.5333%
% inhibition Apo pol 10' (DRC-1; concentration 20; 10'): 54.2328%
% inhibition Apol 90' (DRC-1; concentration 20; 90'): 47.5478%
% inhibition apPOL 180' (DRC-1; concentration 20; 180'): 35.8091%
% inhibition Apo pol 10' (DRC-1; concentration 40; 10'): 87.2694%
% inhibition Apol 90' (DRC-1; concentration 40; 90'): 81.5158%
% inhibition apPOL 180' (DRC-1; concentration 40; 180'): 74.4081%
% inhibition Apo pol 10' [1]: 98.3006%
% inhibition Apol 90' (DRC-1; concentration 80; 90'): 92.5623%
% inhibition apPOL 180' (DRC-1; concentration 80; 180'): 89.3704%
% inhibition Apo pol 5' (DRC-2; 5'; concentration 10): 10%
% inhibition Apol 40' (DRC-2; 40'; concentration 2.5): 10%
% inhibition Apol 40' (DRC-2; 40'; concentration 40): 63%
% inhibition Apol 40' (DRC-2; 40'; concentration 80): 75%
% inhibition ApPOL 90' (DRC-2; 90'; concentration 2.5): 10%
% inhibition ApPOL 90' (DRC-2; 90'; concentration 40): 63%
% inhibition apPOL 180' (DRC-2; 180'; concentration 80): 75%
% inhibition Apo pol 5' (DRC-2; concentration 2.5; 5'): 9%
% inhibition Apol 40' (DRC-2; concentration 2.5; 40'): 10%
% inhibition ApPOL 90' (DRC-2; concentration 2.5; 90'): 10%
% inhibition apPOL 180' (DRC-2; concentration 2.5; 180'): 5%
% inhibition Apo pol 5' (DRC-2; concentration 5; 5'): 16%
% inhibition Apol 40' (DRC-2; concentration 5; 40'): 17%
% inhibition ApPOL 90' (DRC-2; concentration 5; 90'): 15%
% inhibition apPOL 180' (DRC-2; concentration 5; 180'): 8.45%
% inhibition Apo pol 5' (DRC-2; concentration 10; 5'): 10%
% inhibition Apol 40' (DRC-2; concentration 10; 40'): 8.56%
% inhibition ApPOL 90' (DRC-2; concentration 10; 90'): 8%
% inhibition apPOL 180' (DRC-2; concentration 10; 180'): 2.65%
% inhibition Apo pol 5' (DRC-2; concentration 20; 5'): 20%
% inhibition Apol 40' (DRC-2; concentration 20; 40'): 22%
% inhibition ApPOL 90' (DRC-2; concentration 20; 90'): 21%
% inhibition apPOL 180' (DRC-2; concentration 20; 180'): 12%
% inhibition Apo pol 5' (DRC-2; concentration 40; 5'): 54%
% inhibition Apol 40' (DRC-2; concentration 40; 40'): 63%
% inhibition ApPOL 90' (DRC-2; concentration 40; 90'): 63%
% inhibition apPOL 180' (DRC-2; concentration 40; 180'): 56%
% inhibition Apo pol 5' (DRC-2; concentration 80; 5'): 64%
% inhibition Apol 40' (DRC-2; concentration 80; 40'): 75%
% inhibition ApPOL 90' (DRC-2; concentration 80; 90'): 77%
% inhibition apPOL 180' (DRC-2; concentration 80; 180'): 75%
DNA Pol [2]: 52
DNA Pol [3]: 52

Cn1nc(C(=O)N2CCc3c(nc4cc(-c5ccccc5)[nH]n4c3=O)C2)c2ccccc21 [Molecule 18]
IC50 [4]: 6.38 µM

O=C(c1c[nH]c2ncccc12)N1CCCCCC1 [Molecule 51]
IC50 [4]: 21.5 µM

O=C(Nc1nnc(-c2ccno2)o1)c1ccc2ncsc2c1 [Molecule 62, O=C(c1ccc2c(c1)scn2)Nc1nnc(o1)c1ccno1]
DNA Pol ('DNA Pol'; screening value, unit not given; 90 min, 10 µM): 57
% inhibition Apo pol 10' (DRC-1; 10'; concentration 2.5): 10.861%
% inhibition Apo pol 10' (DRC-1; 10'; concentration 5): 15.6525%
% inhibition Apo pol 10' (DRC-1; 10'; concentration 10): 33.6921%
% inhibition Apo pol 10' (DRC-1; 10'; concentration 20): 64.2838%
% inhibition Apo pol 10' (DRC-1; 10'; concentration 40): 78.1502%
% inhibition Apo pol 10' (DRC-1; 10'; concentration 80): 81.399%
% inhibition Apol 90' (DRC-1; 90'; concentration 2.5): -2.7392%
% inhibition Apol 90' (DRC-1; 90'; concentration 5): 1.406%
% inhibition Apol 90' (DRC-1; 90'; concentration 10): 10.5152%
% inhibition Apol 90' (DRC-1; 90'; concentration 20): 33.263%
% inhibition Apol 90' (DRC-1; 90'; concentration 40): 51.9867%
% inhibition Apol 90' (DRC-1; 90'; concentration 80): 68.6824%
% inhibition apPOL 180' (DRC-1; 180'; concentration 2.5): -12.5523%
% inhibition apPOL 180' (DRC-1; 180'; concentration 5): -8.9419%
% inhibition apPOL 180' (DRC-1; 180'; concentration 10): -4.993%
% inhibition apPOL 180' (DRC-1; 180'; concentration 20): 10.6012%
% inhibition apPOL 180' (DRC-1; 180'; concentration 40): 29.0771%
% inhibition apPOL 180' (DRC-1; 180'; concentration 80): 50.4309%
% inhibition Apo pol 5' (DRC-2, 5', concentration 2.5): 9%
% inhibition Apo pol 5' (DRC-2, 5', concentration 5): 11%
% inhibition Apo pol 5' (DRC-2, 5', concentration 10): 38%
% inhibition Apo pol 5' (DRC-2, 5', concentration 20): 39%
% inhibition Apo pol 5' (DRC-2, 5', concentration 40): 37%
% inhibition Apo pol 5' (DRC-2, 5', concentration 80): 28%
% inhibition Apol 40' (DRC-2, 40', concentration 2.5): 6.5%
% inhibition Apol 40' (DRC-2, 40', concentration 5): 8%
% inhibition Apol 40' (DRC-2, 40', concentration 10): 36%
% inhibition Apol 40' (DRC-2, 40', concentration 20): 42%
% inhibition Apol 40' (DRC-2, 40', concentration 40): 53%
% inhibition Apol 40' (DRC-2, 40', concentration 80): 56%
% inhibition ApPOL 90' (DRC-2, 90', concentration 2.5): 4%
% inhibition ApPOL 90' (DRC-2, 90', concentration 5): 4%
% inhibition ApPOL 90' (DRC-2, 90', concentration 10): 29%
% inhibition ApPOL 90' (DRC-2, 90', concentration 20): 38%
% inhibition ApPOL 90' (DRC-2, 90', concentration 40): 54%
% inhibition ApPOL 90' (DRC-2, 90', concentration 80): 62%
% inhibition apPOL 180' (DRC-2, 180', concentration 2.5): -3%
% inhibition apPOL 180' (DRC-2, 180', concentration 5): -6%
% inhibition apPOL 180' (DRC-2, 180', concentration 10): 14%
% inhibition apPOL 180' (DRC-2, 180', concentration 20): 21%
% inhibition apPOL 180' (DRC-2, 180', concentration 40): 46%
% inhibition apPOL 180' (DRC-2, 180', concentration 80): 61%
% inhibition ApPOL 90' (conc 2.5 (unit not given); 90'; DRC-2): 4%
% inhibition ApPOL 90' (conc 5 (unit not given); 90'; DRC-2): 4%
% inhibition Apo pol 5' (conc 10 (unit not given); 5'; DRC-2): 38%
% inhibition ApPOL 90' (conc 20 (unit not given); 90'; DRC-2): 38%
DNA Pol (primary screen hit value, DNA Pol (186 hits); 90 min, 10 µM): 57

O=c1cc(CN2CCCCC2)c2cc3c(cc2o1)OCO3 [Molecule 56]
IC50 [4]: 38.1 µM

Cc1ccccc1NC(=O)Cn1ccc2c(=O)[nH]ccc21 [Molecule 85]
IC50 [4]: 9.12 µM

O=C(Cn1ccc2c(=O)[nH]ccc21)Nc1ccc(Cl)cc1 [Molecule 36]
IC50 [4]: 12.8 µM

O=C(NNC(=O)c1ccc(Cl)cc1)C(=O)NNC(=O)c1ccc(Cl)cc1 [Molecule 25]
IC50 [4]: 9.83 µM

Nc1ncnc(NC2CCCCC2)c1[N+](=O)[O-] [KU0193018]
% inhibition Apo pol 10' (DRC-1; concentration 2.5; 10'): -4.033%
% inhibition Apol 90' (DRC-1; concentration 2.5; 90'): 1.71%
% inhibition apPOL 180' (DRC-1; concentration 2.5; 180'): 7.961%
% inhibition Apo pol 10' (DRC-1; concentration 5; 10'): -4.7638%
% inhibition Apol 90' (DRC-1; concentration 5; 90'): 3.18%
% inhibition apPOL 180' (DRC-1; concentration 5; 180'): 11.4393%
% inhibition Apo pol 10' (DRC-1; concentration 10; 10'): 7.571%
% inhibition Apol 90' (DRC-1; concentration 10; 90'): 18.3925%
% inhibition apPOL 180' (DRC-1; concentration 10; 180'): 32.1574%
% inhibition Apo pol 10' (DRC-1; concentration 20; 10'): 20.9545%
% inhibition Apol 90' (DRC-1; concentration 20; 90'): 38.4286%
% inhibition apPOL 180' (DRC-1; concentration 20; 180'): 56.6751%
% inhibition Apo pol 10' (DRC-1; concentration 40; 10'): 53.9116%
% inhibition Apol 90' (DRC-1; concentration 40; 90'): 70.3163%
% inhibition apPOL 180' (DRC-1; concentration 40; 180'): 83.6838%
% inhibition Apo pol 10' [1]: 70.2616%
% inhibition Apol 90' (DRC-1; concentration 80; 90'): 82.4548%
% inhibition apPOL 180' (DRC-1; concentration 80; 180'): 91.4179%
% inhibition Apo pol 5' (DRC-2; concentration 2.5; 5'): -2.47%
% inhibition Apol 40' (DRC-2; concentration 2.5; 40'): -1.57%
% inhibition ApPOL 90' (DRC-2; concentration 2.5; 90'): -2.42%
% inhibition apPOL 180' (DRC-2; concentration 2.5; 180'): -6.58%
% inhibition Apo pol 5' (DRC-2; concentration 5; 5'): 4%
% inhibition Apol 40' (DRC-2; concentration 5; 40'): 3.32%
% inhibition ApPOL 90' (DRC-2; concentration 5; 90'): 2.51%
% inhibition apPOL 180' (DRC-2; concentration 5; 180'): -3.38%
% inhibition Apo pol 5' (DRC-2; concentration 10; 5'): 20%
% inhibition Apol 40' (DRC-2; concentration 10; 40'): 19%
% inhibition ApPOL 90' (DRC-2; concentration 10; 90'): 15%
% inhibition apPOL 180' (DRC-2; concentration 10; 180'): 6%
% inhibition Apo pol 5' (DRC-2; concentration 20; 5'): 37%
% inhibition Apol 40' (DRC-2; concentration 20; 40'): 42%
% inhibition ApPOL 90' (DRC-2; concentration 20; 90'): 38%
% inhibition apPOL 180' (DRC-2; concentration 20; 180'): 26%
% inhibition Apo pol 5' (DRC-2; concentration 40; 5'): 50%
% inhibition Apol 40' (DRC-2; concentration 40; 40'): 64%
% inhibition ApPOL 90' (DRC-2; concentration 40; 90'): 63%
% inhibition apPOL 180' (DRC-2; concentration 40; 180'): 55%
% inhibition Apo pol 5' (DRC-2; concentration 80; 5'): 52%
% inhibition Apol 40' (DRC-2; concentration 80; 40'): 71%
% inhibition ApPOL 90' (DRC-2; concentration 80; 90'): 72%
% inhibition apPOL 180' (DRC-2; concentration 80; 180'): 69%
DNA Pol [2]: 25
DNA Pol [3]: 25

O=C(O)c1nc(-c2ccccc2)nc2c1OCO2 [Molecule 45]
IC50 [4]: 11.2 µM

Cc1ccc(C)n1-c1ccc(C(=O)NNC(=O)c2ccc3nccnc3c2)cc1 [Molecule 53]
IC50 [4]: 20.4 µM

COc1ccc(-c2cc3nc4c(c(=O)n3[nH]2)CCN(C(=O)CCc2ccccc2)C4)cc1 [Molecule 17]
IC50 [4]: 7.1 µM
